Legend:
blackgrass [1] = test: Test Example 4: herbicidal effect by soil treatment (Table 19, symbol J); format: in vivo, blackgrass (Alopecurus myosuroides)
Outline: (§1)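 Emulsion of test compound, water-diluted to predetermined amount, sprayed on soil after sowing (seed depth ~1.5 cm, sterilized diluvial soil). Greenhouse, 25–30° C. Effect graded at three weeks post-spray.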

Italian ryegrass [2] = test: Test Example 5: herbicidal effect by foliage application, plastic box (Table 20, symbol K); format: in vivo, Italian ryegrass (Lolium multiflorum); settings: evaluated three weeks after application
Outline: (§2)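 Post-emergence foliar test in sterilized diluvial soil. Compound applied as water-diluted emulsion at a predetermined rate to 14-day-old plants; evaluation at three weeks.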

wild oat [3] = test: Test Example 5: herbicidal effect by foliage application, plastic box (Table 20, symbol I); format: in vivo, wild oat (Avena fatua); settings: evaluated three weeks after application
Outline: as §2

redroot pigweed [4] = test: Test Example 5: herbicidal effect by foliage application, plastic box (Table 20, symbol N); format: in vivo, redroot pigweed (Amaranthus retroflexus); settings: evaluated three weeks after application
Outline: as §2

southern crabgrass [5] = test: Test Example 5: herbicidal effect by foliage application, plastic box (Table 20, symbol F); format: in vivo, southern crabgrass (Digitaria ciliaris); settings: evaluated three weeks after application
Outline: as §2

Italian ryegrass [6] = test: Test Example 4: herbicidal effect by soil treatment (Table 19, symbol K); format: in vivo, Italian ryegrass (Lolium multiflorum)
Outline: as §1

Chinese sprangletop = test: Test Example 3: herbicidal effect by foliage application, Wagner pot (Table 18, symbol D); format: in vivo, chinese sprangletop (Leptochloa chinensis)
Outline: (§3)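 Plants were sown in alluvial soil held under 0.1–0.5 cm standing water and grown 14 days in a greenhouse at 25–30 °C. An emulsifiable formulation, water-diluted to the set dose, was then sprayed onto the foliage, and effects were scored three weeks later using previously defined criteria.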

velvetleaf [7] = test: Test Example 4: herbicidal effect by soil treatment (Table 19, symbol M); format: in vivo, velvetleaf (Abutilon theophrasti)
Outline: as §1

lambsquarters [8] = test: Test Example 4: herbicidal effect by soil treatment (Table 19, symbol O); format: in vivo, lambsquarters (Chenopodium album)
Outline: as §1

redroot pigweed [9] = test: Test Example 4: herbicidal effect by soil treatment (Table 19, symbol N); format: in vivo, redroot pigweed (Amaranthus retroflexus)
Outline: as §1

chickweed [10] = test: Test Example 5: herbicidal effect by foliage application, plastic box (Table 20, symbol P); format: in vivo, common chickweed (Stellaria media); settings: evaluated three weeks after application
Outline: as §2

southern crabgrass [11] = test: Test Example 4: herbicidal effect by soil treatment (Table 19, symbol F); format: in vivo, southern crabgrass (Digitaria ciliaris)
Outline: as §1

green foxtail [12] = test: Test Example 4: herbicidal effect by soil treatment (Table 19, symbol G); format: in vivo, green foxtail (Setaria viridis)
Outline: as §1

wild oat [13] = test: Test Example 4: herbicidal effect by soil treatment (Table 19, symbol I); format: in vivo, wild oat (Avena fatua)
Outline: as §1

rice flat sedge = test: Test Example 3: herbicidal effect by foliage application, Wagner pot (Table 18, symbol E); format: in vivo, rice flat sedge (Cyperus iria)
Outline: as §3

green foxtail [14] = test: Test Example 5: herbicidal effect by foliage application, plastic box (Table 20, symbol G); format: in vivo, green foxtail (Setaria viridis); settings: evaluated three weeks after application
Outline: as §2

blackgrass [15] = test: Test Example 5: herbicidal effect by foliage application, plastic box (Table 20, symbol J); format: in vivo, blackgrass (Alopecurus myosuroides); settings: evaluated three weeks after application
Outline: as §2

barnyard grass [16] = test: Test Example 3: herbicidal effect by foliage application, Wagner pot (Table 18, symbol H); format: in vivo, barnyard grass (Echinochloa crus-galli)
Outline: as §3

barnyard grass [17] = test: Test Example 5: herbicidal effect by foliage application, plastic box (Table 20, symbol H); format: in vivo, barnyard grass (Echinochloa crus-galli); settings: evaluated three weeks after application
Outline: as §2

persian speedwell [18] = test: Test Example 5: herbicidal effect by foliage application, plastic box (Table 20, symbol R); format: in vivo, Persian speedwell (Veronica persica); settings: evaluated three weeks after application
Outline: as §2

barnyard grass [19] = test: Test Example 4: herbicidal effect by soil treatment (Table 19, symbol H); format: in vivo, barnyard grass (Echinochloa crus-galli)
Outline: as §1

windgrass [20] = test: Test Example 5: herbicidal effect by foliage application, plastic box (Table 20, symbol L); format: in vivo, windgrass (Apera spica-venti); settings: foliage application, 320 g/ha, evaluated three weeks after application
Outline: as §2

lambsquarters [21] = test: Test Example 5: herbicidal effect by foliage application, plastic box (Table 20, symbol O); format: in vivo, lambsquarters (Chenopodium album); settings: foliage application, 320 g/ha, evaluated three weeks after application
Outline: as §2

persian speedwell [22] = test: Test Example 4: herbicidal effect by soil treatment (Table 19, symbol R); format: in vivo, Persian speedwell (Veronica persica)
Outline: as §1

velvetleaf [23] = test: Test Example 5: herbicidal effect by foliage application, plastic box (Table 20, symbol M); format: in vivo, velvetleaf (Abutilon theophrasti); settings: evaluated three weeks after application
Outline: as §2

windgrass [24] = test: Test Example 4: herbicidal effect by soil treatment (Table 19, symbol L); format: in vivo, windgrass (Apera spica-venti)
Outline: as §1

chickweed [25] = test: Test Example 4: herbicidal effect by soil treatment (Table 19, symbol P); format: in vivo, common chickweed (Stellaria media); settings: amount of applied herbicide 272 g/ha
Outline: as §1

[26] = amount of applied herbicide 320 g/ha
[27] = amount of applied herbicide 272 g/ha
[28] = amount of applied herbicide 272 g/ha, foliage application after 14-day growth

## CCCC(=O)Oc1c(C)nn(C)c(=O)c1-c1c(-c2cccc(OC(C)C)c2)sc2ccc(F)cc12 [2-216]
Blackgrass [1]; [26]
  J: blackgrass, herbicidal effect rating: 0 (Herbicidal rate of 5% or less (almost no effect))
Italian ryegrass [2]; foliage application, 320 g/ha
  herbicidal effect on K: Italian ryegrass (criteria 0-5): 4 (Herbicidal rate of 70% or more and less than 90%)
Wild oat [3]; foliage application, 320 g/ha
  herbicidal effect on I: wild oat (criteria 0-5): 0 (Herbicidal rate of 5% or less (almost no effect))
Redroot pigweed [4]; foliage application, 320 g/ha
  herbicidal effect on N: redroot pigweed (criteria 0-5): 5 (Herbicidal rate of 90% or more (almost completely withered))
Southern crabgrass [5]; foliage application, 320 g/ha
  herbicidal effect on F: southern crabgrass (criteria 0-5): 5 (Herbicidal rate of 90% or more (almost completely withered))
Italian ryegrass [6]; [26]
  K: Italian ryegrass, herbicidal effect rating: 4 (Herbicidal rate of 70% or more and less than 90%)
Chinese sprangletop; [26]
  herbicidal effect on D: Chinese sprangletop: 3 (Herbicidal rate of 40% or more and less than 70%)
Velvetleaf [7]; [26]
  M: velvetleaf, herbicidal effect rating: 2 (Herbicidal rate of 20% or more and less than 40%)
Lambsquarters [8]; [26]
  O: lambsquarters, herbicidal effect rating: 0 (Herbicidal rate of 5% or less (almost no effect))
Redroot pigweed [9]; [26]
  N: redroot pigweed, herbicidal effect rating: 3 (Herbicidal rate of 40% or more and less than 70%)
Chickweed [10]; foliage application, 320 g/ha
  herbicidal effect on P: chickweed (criteria 0-5): 5 (Herbicidal rate of 90% or more (almost completely withered))
Southern crabgrass [11]; [26]
  F: southern crabgrass, herbicidal effect rating: 3 (Herbicidal rate of 40% or more and less than 70%)
Green foxtail [12]; [26]
  G: green foxtail, herbicidal effect rating: 2 (Herbicidal rate of 20% or more and less than 40%)
Wild oat [13]; [26]
  I: wild oat, herbicidal effect rating: 0 (Herbicidal rate of 5% or less (almost no effect))
Rice flat sedge; [26]
  herbicidal effect on E: rice flat sedge: 4 (Herbicidal rate of 70% or more and less than 90%)
Green foxtail [14]; foliage application, 320 g/ha
  herbicidal effect on G: green foxtail (criteria 0-5): 5 (Herbicidal rate of 90% or more (almost completely withered))
Blackgrass [15]; foliage application, 320 g/ha
  herbicidal effect on J: blackgrass (criteria 0-5): 0 (Herbicidal rate of 5% or less (almost no effect))
Barnyard grass [16]; [26]
  herbicidal effect on H: barnyard grass: 5 (Herbicidal rate of 90% or more (almost completely withered))
Barnyard grass [17]; foliage application, 320 g/ha
  herbicidal effect on H: barnyard grass (criteria 0-5): 4 (Herbicidal rate of 70% or more and less than 90%)
Persian speedwell [18]; foliage application, 320 g/ha
  herbicidal effect on R: persian speedwell (criteria 0-5): 5 (Herbicidal rate of 90% or more (almost completely withered))
Barnyard grass [19]; [26]
  H: barnyard grass, herbicidal effect rating: 2 (Herbicidal rate of 20% or more and less than 40%)
Windgrass [20]
  herbicidal effect on L: windgrass (criteria 0-5): 3 (Herbicidal rate of 40% or more and less than 70%)
Lambsquarters [21]
  herbicidal effect on O: lambsquarters (criteria 0-5): 3 (Herbicidal rate of 40% or more and less than 70%)
Persian speedwell [22]; [26]
  R: persian speedwell, herbicidal effect rating: 5 (Herbicidal rate of 90% or more (almost completely withered))
Velvetleaf [23]; foliage application, 320 g/ha
  herbicidal effect on M: velvetleaf (criteria 0-5): 3 (Herbicidal rate of 40% or more and less than 70%)
Windgrass [24]; [26]
  L: windgrass, herbicidal effect rating: 0 (Herbicidal rate of 5% or less (almost no effect))

## CCCC(=O)Oc1c(C)nn(C)c(=O)c1-c1c(-c2ccccc2OC(F)F)sc2cc(F)c(F)cc12 [5-022]
Blackgrass [1]; [27]
  J: blackgrass, herbicidal effect grade: 0 (Herbicidal rate of 5% or less (almost no effect))
Italian ryegrass [2]; [28]
  Herbicidal effect by foliage application, K: Italian ryegrass: 0 (Herbicidal rate of 5% or less (almost no effect))
Wild oat [3]; [28]
  Herbicidal effect by foliage application, I: wild oat: 0 (Herbicidal rate of 5% or less (almost no effect))
Redroot pigweed [4]; [28]
  Herbicidal effect by foliage application, N: redroot pigweed: 5 (Herbicidal rate of 90% or more (almost completely withered))
Southern crabgrass [5]; [28]
  Herbicidal effect by foliage application, F: southern crabgrass: 4 (Herbicidal rate of 70% or more and less than 90%)
Italian ryegrass [6]; [27]
  K: Italian ryegrass, herbicidal effect grade: 0 (Herbicidal rate of 5% or less (almost no effect))
Chinese sprangletop; 272 g/ha
  herbicidal effect on Chinese sprangletop (D): 3 (Herbicidal rate of 40% or more and less than 70%)
Velvetleaf [7]; [27]
  M: velvetleaf, herbicidal effect grade: 3 (Herbicidal rate of 40% or more and less than 70%)
Lambsquarters [8]; [27]
  O: lambsquarters, herbicidal effect grade: 3 (Herbicidal rate of 40% or more and less than 70%)
Redroot pigweed [9]; [27]
  N: redroot pigweed, herbicidal effect grade: 4 (Herbicidal rate of 70% or more and less than 90%)
Chickweed [10]; [28]
  Herbicidal effect by foliage application, P: chickweed: 5 (Herbicidal rate of 90% or more (almost completely withered))
Southern crabgrass [11]; [27]
  F: southern crabgrass, herbicidal effect grade: 1 (Herbicidal rate of 5% or more and less than 20%)
Green foxtail [12]; [27]
  G: green foxtail, herbicidal effect grade: 3 (Herbicidal rate of 40% or more and less than 70%)
Wild oat [13]; [27]
  I: wild oat, herbicidal effect grade: 0 (Herbicidal rate of 5% or less (almost no effect))
Rice flat sedge; 272 g/ha
  herbicidal effect on rice flat sedge (E): 3 (Herbicidal rate of 40% or more and less than 70%)
Green foxtail [14]; [28]
  Herbicidal effect by foliage application, G: green foxtail: 5 (Herbicidal rate of 90% or more (almost completely withered))
Blackgrass [15]; [28]
  Herbicidal effect by foliage application, J: blackgrass: 1 (Herbicidal rate of 5% or more and less than 20%)
Barnyard grass [16]; 272 g/ha
  herbicidal effect on barnyard grass (H): 4 (Herbicidal rate of 70% or more and less than 90%)
Barnyard grass [17]; [28]
  Herbicidal effect by foliage application, H: barnyard grass: 3 (Herbicidal rate of 40% or more and less than 70%)
Persian speedwell [18]; [28]
  Herbicidal effect by foliage application, R: persian speedwell: 4 (Herbicidal rate of 70% or more and less than 90%)
Chickweed [25]
  P: chickweed, herbicidal effect grade: 3 (Herbicidal rate of 40% or more and less than 70%)
Barnyard grass [19]; [27]
  H: barnyard grass, herbicidal effect grade: 0 (Herbicidal rate of 5% or less (almost no effect))
Persian speedwell [22]; [27]
  R: persian speedwell, herbicidal effect grade: 3 (Herbicidal rate of 40% or more and less than 70%)
Velvetleaf [23]; [28]
  Herbicidal effect by foliage application, M: velvetleaf: 5 (Herbicidal rate of 90% or more (almost completely withered))
Windgrass [24]; [27]
  L: windgrass, herbicidal effect grade: 0 (Herbicidal rate of 5% or less (almost no effect))

From patent US20230085307A1, “PYRIDAZINONE COMPOUND AND HERBICIDE” (NISSAN CHEMICAL CORPORATION, priority 2019, published 2023)
